Values of other authors as cited in patent publication US12697342B2, “Non-surgical prevention of boar taint and aggressive behavior” (priority 2022, dated 2026).

Test system: Sertoli cells
Conditions: young male pigs

Row | SMILES | duration of Sertoli cell proliferation and testis size
1 | C[C@]12CC[C@@H]3c4ccc(O)cc4C[C@@H](CCCCCCCCC[S+]([O-])CCCC(F)(F)C(F)(F)F)[C@H]3[C@@H]1CC[C@@H]2O (some centres unmarked) [ICI 182,780] | highly significant increase
2 | N#Cc1ccc(C(c2ccc(C#N)cc2)n2cncn2)cc1 [Letrozole] | highly significant increase
